Experimental data: patent US9340590B2 (priority 2011, dated 2016)
Positions of bridges follow the written chain, without caps; N, C: chain ends. Non-standard residues stand in square brackets, D forms with d. Residues, ends and D or L forms follow the SMILES beside them. Phe(4-COOH) = N[C@@H](Cc1ccc(C(=O)O)cc1)C(=O)O; NMeF = CN[C@@H](Cc1ccccc1)C(=O)O; 2Pal = N[C@@H](Cc1ccccn1)C(=O)O; Phg = N[C@H](C(=O)O)c1ccccc1

Tests used:
Experiment in all cases: cell-based
hNav1.5 = hNav1.5 (Homo sapiens, UniProt Q14524); details: IonWorks Quattro, Use; read-out: IWQ Use Nav1.5
Chain of hNav1.5 (Q14524 whole entry, looked up): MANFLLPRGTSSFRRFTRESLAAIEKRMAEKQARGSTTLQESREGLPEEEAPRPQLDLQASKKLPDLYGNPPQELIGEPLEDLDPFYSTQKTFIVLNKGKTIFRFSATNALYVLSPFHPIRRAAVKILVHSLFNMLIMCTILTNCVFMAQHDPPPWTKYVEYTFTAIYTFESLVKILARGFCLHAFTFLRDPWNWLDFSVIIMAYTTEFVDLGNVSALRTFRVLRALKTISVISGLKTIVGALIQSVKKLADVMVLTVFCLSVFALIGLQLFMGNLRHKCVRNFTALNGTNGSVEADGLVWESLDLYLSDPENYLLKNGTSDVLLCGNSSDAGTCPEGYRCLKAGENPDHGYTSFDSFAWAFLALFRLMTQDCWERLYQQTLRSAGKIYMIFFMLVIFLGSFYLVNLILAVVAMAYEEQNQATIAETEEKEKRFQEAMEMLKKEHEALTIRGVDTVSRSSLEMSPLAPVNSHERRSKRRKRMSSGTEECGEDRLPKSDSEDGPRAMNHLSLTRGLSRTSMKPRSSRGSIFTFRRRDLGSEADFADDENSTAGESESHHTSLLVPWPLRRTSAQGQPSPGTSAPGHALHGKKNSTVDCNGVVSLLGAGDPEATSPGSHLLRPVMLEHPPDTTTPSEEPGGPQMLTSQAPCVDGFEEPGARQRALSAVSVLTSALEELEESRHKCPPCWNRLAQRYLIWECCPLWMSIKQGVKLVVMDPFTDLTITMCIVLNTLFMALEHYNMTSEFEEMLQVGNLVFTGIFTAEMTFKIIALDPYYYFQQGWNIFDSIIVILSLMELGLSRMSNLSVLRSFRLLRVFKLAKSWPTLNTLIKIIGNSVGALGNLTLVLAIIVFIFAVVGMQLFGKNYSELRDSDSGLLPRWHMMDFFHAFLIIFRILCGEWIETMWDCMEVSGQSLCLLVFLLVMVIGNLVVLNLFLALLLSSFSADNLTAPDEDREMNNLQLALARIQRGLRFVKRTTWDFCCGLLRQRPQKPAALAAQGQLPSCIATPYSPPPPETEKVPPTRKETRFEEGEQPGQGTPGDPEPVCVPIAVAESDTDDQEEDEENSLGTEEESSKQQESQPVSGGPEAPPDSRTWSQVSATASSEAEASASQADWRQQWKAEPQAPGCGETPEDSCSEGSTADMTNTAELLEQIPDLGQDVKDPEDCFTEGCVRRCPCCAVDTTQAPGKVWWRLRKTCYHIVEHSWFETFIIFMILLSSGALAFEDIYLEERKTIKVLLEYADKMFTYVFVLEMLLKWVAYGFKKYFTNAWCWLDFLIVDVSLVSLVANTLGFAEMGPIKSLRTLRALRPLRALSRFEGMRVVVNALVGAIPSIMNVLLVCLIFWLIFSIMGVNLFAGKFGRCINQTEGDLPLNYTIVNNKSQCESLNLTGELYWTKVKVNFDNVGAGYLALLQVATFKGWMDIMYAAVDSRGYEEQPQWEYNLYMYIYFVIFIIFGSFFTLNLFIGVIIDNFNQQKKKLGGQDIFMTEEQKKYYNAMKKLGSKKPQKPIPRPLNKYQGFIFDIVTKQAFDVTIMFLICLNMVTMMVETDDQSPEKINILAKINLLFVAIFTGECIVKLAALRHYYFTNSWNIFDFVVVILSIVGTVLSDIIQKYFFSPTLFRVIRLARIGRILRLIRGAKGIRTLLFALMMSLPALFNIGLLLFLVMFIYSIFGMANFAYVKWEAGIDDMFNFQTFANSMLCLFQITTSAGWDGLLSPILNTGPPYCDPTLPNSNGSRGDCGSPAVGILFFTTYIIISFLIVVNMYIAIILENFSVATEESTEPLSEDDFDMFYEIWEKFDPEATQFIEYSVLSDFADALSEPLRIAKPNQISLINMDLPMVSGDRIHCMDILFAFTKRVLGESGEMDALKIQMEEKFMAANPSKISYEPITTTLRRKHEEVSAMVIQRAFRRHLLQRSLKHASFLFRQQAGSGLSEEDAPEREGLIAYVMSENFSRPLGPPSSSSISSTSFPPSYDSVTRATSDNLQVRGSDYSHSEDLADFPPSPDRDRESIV

hNav1.7 = hNav1.7 (Homo sapiens, UniProt Q15858); format: cell-based; details: IonWorks Quattro, Use; read-out: IWQ Use Nav1.7
hNav1.3 = hNav1.3 (Homo sapiens, UniProt Q9NY46); details: IonWorks Quattro, Use; read-out: IWQ Use Nav1.3
Chain of hNav1.3 (Q9NY46 whole entry, looked up): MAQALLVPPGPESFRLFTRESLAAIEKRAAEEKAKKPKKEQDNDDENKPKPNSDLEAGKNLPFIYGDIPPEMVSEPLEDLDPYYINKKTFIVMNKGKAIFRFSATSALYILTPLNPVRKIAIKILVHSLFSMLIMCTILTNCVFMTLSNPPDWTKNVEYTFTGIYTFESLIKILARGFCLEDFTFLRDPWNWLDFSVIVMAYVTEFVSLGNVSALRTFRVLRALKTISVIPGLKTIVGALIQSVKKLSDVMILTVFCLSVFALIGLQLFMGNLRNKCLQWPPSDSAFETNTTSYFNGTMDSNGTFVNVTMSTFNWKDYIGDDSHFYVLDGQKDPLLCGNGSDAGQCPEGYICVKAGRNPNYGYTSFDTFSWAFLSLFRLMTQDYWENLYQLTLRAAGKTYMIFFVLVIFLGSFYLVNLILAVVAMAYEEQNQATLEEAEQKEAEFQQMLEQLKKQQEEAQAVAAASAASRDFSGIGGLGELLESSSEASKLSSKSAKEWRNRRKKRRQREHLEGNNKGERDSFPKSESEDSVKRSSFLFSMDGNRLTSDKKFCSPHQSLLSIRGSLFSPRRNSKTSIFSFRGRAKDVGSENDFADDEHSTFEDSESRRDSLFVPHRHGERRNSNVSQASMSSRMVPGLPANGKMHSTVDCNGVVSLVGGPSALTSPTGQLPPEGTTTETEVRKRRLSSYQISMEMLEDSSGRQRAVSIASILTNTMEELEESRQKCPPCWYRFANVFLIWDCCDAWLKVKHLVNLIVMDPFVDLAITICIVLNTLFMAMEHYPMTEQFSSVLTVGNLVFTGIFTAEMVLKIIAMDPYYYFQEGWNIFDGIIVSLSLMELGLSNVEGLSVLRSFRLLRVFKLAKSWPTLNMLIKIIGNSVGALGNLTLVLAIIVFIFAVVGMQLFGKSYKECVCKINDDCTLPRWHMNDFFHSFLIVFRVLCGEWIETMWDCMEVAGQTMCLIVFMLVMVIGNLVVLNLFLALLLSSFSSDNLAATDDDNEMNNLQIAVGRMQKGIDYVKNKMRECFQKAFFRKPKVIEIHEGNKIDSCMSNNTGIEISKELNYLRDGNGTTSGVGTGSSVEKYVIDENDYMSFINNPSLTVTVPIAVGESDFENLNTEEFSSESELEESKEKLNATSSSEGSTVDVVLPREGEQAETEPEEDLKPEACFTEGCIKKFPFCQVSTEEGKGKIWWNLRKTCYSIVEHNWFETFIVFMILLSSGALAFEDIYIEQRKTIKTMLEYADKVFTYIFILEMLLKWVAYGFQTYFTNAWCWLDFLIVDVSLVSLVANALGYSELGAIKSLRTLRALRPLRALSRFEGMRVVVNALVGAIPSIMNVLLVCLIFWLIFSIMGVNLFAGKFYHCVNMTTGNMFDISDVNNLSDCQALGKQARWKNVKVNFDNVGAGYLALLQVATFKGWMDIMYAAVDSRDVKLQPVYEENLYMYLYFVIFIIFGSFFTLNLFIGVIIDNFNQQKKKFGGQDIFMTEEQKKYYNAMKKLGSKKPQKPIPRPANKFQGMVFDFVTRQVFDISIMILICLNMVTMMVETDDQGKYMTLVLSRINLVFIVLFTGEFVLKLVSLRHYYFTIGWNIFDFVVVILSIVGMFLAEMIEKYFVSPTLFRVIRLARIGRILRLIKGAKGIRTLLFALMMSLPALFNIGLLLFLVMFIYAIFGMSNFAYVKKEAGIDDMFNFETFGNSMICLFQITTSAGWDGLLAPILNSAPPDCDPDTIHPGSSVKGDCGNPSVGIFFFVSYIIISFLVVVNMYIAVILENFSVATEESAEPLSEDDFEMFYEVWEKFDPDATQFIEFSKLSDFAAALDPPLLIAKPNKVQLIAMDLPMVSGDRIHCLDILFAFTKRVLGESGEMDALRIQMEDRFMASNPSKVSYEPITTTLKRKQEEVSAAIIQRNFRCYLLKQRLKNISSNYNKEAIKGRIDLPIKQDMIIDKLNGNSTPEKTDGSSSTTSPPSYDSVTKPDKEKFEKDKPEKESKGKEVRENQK

Row | SMILES | IC50 (hNav1.5) | IC50 (hNav1.7) | IC50 (hNav1.3)
1 | CC[C@H](C)[C@@H]1NC(=O)[C@@H]2CSSC[C@@H]3NC(=O)[C@H](CC(=O)O)NC(=O)[C@H](CC(C)C)NC(=O)[C@H](CC(N)=O)NC(=O)[C@@H]4CCCN4C(=O)[C@H](CCCNC(=N)N)NC(=O)[C@H](CSSC[C@H](NC(=O)[C@@H](N)CC(=O)O)C(=O)N[C@@H](CC(C)C)C(=O)NCC(=O)N[C@@H](Cc4ccccc4)C(=O)N[C@@H](CCSC)C(=O)N[C@@H](CCCNC(=N)N)C(=O)N[C@@H](CCCCN)C(=O)N2)NC(=O)[C@H](CSSC[C@@H](C(=O)N[C@@H](CCCCN)C(=O)N[C@@H](Cc2ccc(O)cc2)C(=O)N[C@H](C(=O)N[C@@H](Cc2ccccc2)C(N)=O)C(C)C)NC(=O)[C@H](Cc2c[nH]c4ccccc24)NC(=O)[C@H](CCCCN)NC(=O)[C@H](Cc2c[nH]cn2)NC(=O)[C@H]([C@@H](C)O)NC(=O)[C@H](CCCNC(=N)N)NC(=O)[C@H](CO)NC3=O)NC(=O)[C@H](CCCCN)NC(=O)[C@H](CC(=O)O)NC(=O)[C@H](CC(N)=O)NC(=O)[C@H](CC(=O)O)NC(=O)[C@@H]2CCCN2C1=O [compound 327] (H-DCLGFMRKCIPDNDKCCRPNLDCSRTHKWCKYVF-NH2; disulfide 2-17, 9-23, 16-30) | 13.3 µM | 1.5 µM | 0.63 µM
2 | CC[C@H](C)[C@@H]1NC(=O)[C@@H]2CSSC[C@@H]3NC(=O)[C@H](Cc4ccccc4)N(C)C(=O)[C@H](CC(C)C)NC(=O)[C@H](CC(N)=O)NC(=O)[C@@H]4CCCN4C(=O)[C@H](CCCNC(=N)N)NC(=O)[C@H](CSSC[C@H](NC(=O)[C@@H](N)CC(=O)O)C(=O)N[C@@H](CC(C)C)C(=O)NCC(=O)N[C@@H](Cc4ccccc4)C(=O)N[C@@H](CCSC)C(=O)N[C@@H](CCCNC(=N)N)C(=O)N[C@@H](CCCCN)C(=O)N2)NC(=O)[C@H](CSSC[C@@H](C(=O)N[C@@H](CCCCN)C(=O)N[C@@H](Cc2ccc(O)cc2)C(=O)N[C@H](C(=O)N[C@@H](Cc2ccccc2)C(N)=O)C(C)C)NC(=O)[C@H](Cc2c[nH]c4ccccc24)NC(=O)[C@H](CCCCN)NC(=O)[C@H](Cc2c[nH]cn2)NC(=O)[C@H]([C@@H](C)O)NC(=O)[C@H](CCCNC(=N)N)NC(=O)[C@H](CO)NC3=O)NC(=O)[C@H](CCCCN)NC(=O)[C@H](CC(=O)O)NC(=O)[C@H](CC(N)=O)NC(=O)[C@H](CC(=O)O)NC(=O)[C@@H]2CCCN2C1=O [compound 328] (H-DCLGFMRKCIPDNDKCCRPNL[NMeF]CSRTHKWCKYVF-NH2; disulfide 2-17, 9-23, 16-30) | 20.4 µM | 20.6 µM | 7.37 µM
3 | CC[C@H](C)[C@@H]1NC(=O)[C@@H]2CSSC[C@@H]3NC(=O)[C@H]([C@@H](C)O)NC(=O)[C@H](CC(C)C)NC(=O)[C@H](CC(N)=O)NC(=O)[C@@H]4CCCN4C(=O)[C@H](CCCNC(=N)N)NC(=O)[C@H](CSSC[C@H](NC(=O)[C@@H](N)CC(=O)O)C(=O)N[C@@H](CC(C)C)C(=O)NCC(=O)N[C@@H](Cc4ccccc4)C(=O)N[C@@H](CCSC)C(=O)N[C@@H](CCCNC(=N)N)C(=O)N[C@@H](CCCCN)C(=O)N2)NC(=O)[C@H](CSSC[C@@H](C(=O)N[C@@H](CCCCN)C(=O)N[C@@H](Cc2ccc(O)cc2)C(=O)N[C@H](C(=O)N[C@@H](Cc2ccccc2)C(N)=O)C(C)C)NC(=O)[C@H](Cc2c[nH]c4ccccc24)NC(=O)[C@H](CCCCN)NC(=O)[C@H](Cc2c[nH]cn2)NC(=O)[C@H]([C@@H](C)O)NC(=O)[C@H](CCCNC(=N)N)NC(=O)[C@H](CO)NC3=O)NC(=O)[C@H](CCCCN)NC(=O)[C@H](CC(=O)O)NC(=O)[C@H](CC(N)=O)NC(=O)[C@H](CC(=O)O)NC(=O)[C@@H]2CCCN2C1=O [compound 329] (H-DCLGFMRKCIPDNDKCCRPNLTCSRTHKWCKYVF-NH2; disulfide 2-17, 9-23, 16-30) | 4.59 µM | 0.12 µM | 0.08 µM
4 | CC[C@H](C)[C@@H]1NC(=O)[C@@H]2CSSC[C@@H]3NC(=O)[C@H](c4ccccc4)NC(=O)[C@H](CC(C)C)NC(=O)[C@H](CC(N)=O)NC(=O)[C@@H]4CCCN4C(=O)[C@H](CCCNC(=N)N)NC(=O)[C@H](CSSC[C@H](NC(=O)[C@@H](N)CC(=O)O)C(=O)N[C@@H](CC(C)C)C(=O)NCC(=O)N[C@@H](Cc4ccccc4)C(=O)N[C@@H](CCSC)C(=O)N[C@@H](CCCNC(=N)N)C(=O)N[C@@H](CCCCN)C(=O)N2)NC(=O)[C@H](CSSC[C@@H](C(=O)N[C@@H](CCCCN)C(=O)N[C@@H](Cc2ccc(O)cc2)C(=O)N[C@H](C(=O)N[C@@H](Cc2ccccc2)C(N)=O)C(C)C)NC(=O)[C@H](Cc2c[nH]c4ccccc24)NC(=O)[C@H](CCCCN)NC(=O)[C@H](Cc2c[nH]cn2)NC(=O)[C@H]([C@@H](C)O)NC(=O)[C@H](CCCNC(=N)N)NC(=O)[C@H](CO)NC3=O)NC(=O)[C@H](CCCCN)NC(=O)[C@H](CC(=O)O)NC(=O)[C@H](CC(N)=O)NC(=O)[C@H](CC(=O)O)NC(=O)[C@@H]2CCCN2C1=O [compound 330] (H-DCLGFMRKCIPDNDKCCRPNL[Phg]CSRTHKWCKYVF-NH2; disulfide 2-17, 9-23, 16-30) | 4.69 µM | 0.18 µM | 0.07 µM
5 | CC[C@H](C)[C@@H]1NC(=O)[C@@H]2CSSC[C@@H]3NC(=O)[C@H](Cc4ccc(O)cc4)NC(=O)[C@H](CC(C)C)NC(=O)[C@H](CC(N)=O)NC(=O)[C@@H]4CCCN4C(=O)[C@H](CCCNC(=N)N)NC(=O)[C@H](CSSC[C@H](NC(=O)[C@@H](N)CC(=O)O)C(=O)N[C@@H](CC(C)C)C(=O)NCC(=O)N[C@@H](Cc4ccccc4)C(=O)N[C@@H](CCSC)C(=O)N[C@@H](CCCNC(=N)N)C(=O)N[C@@H](CCCCN)C(=O)N2)NC(=O)[C@H](CSSC[C@@H](C(=O)N[C@@H](CCCCN)C(=O)N[C@@H](Cc2ccc(O)cc2)C(=O)N[C@H](C(=O)N[C@@H](Cc2ccccc2)C(N)=O)C(C)C)NC(=O)[C@H](Cc2c[nH]c4ccccc24)NC(=O)[C@H](CCCCN)NC(=O)[C@H](Cc2c[nH]cn2)NC(=O)[C@H]([C@@H](C)O)NC(=O)[C@H](CCCNC(=N)N)NC(=O)[C@H](CO)NC3=O)NC(=O)[C@H](CCCCN)NC(=O)[C@H](CC(=O)O)NC(=O)[C@H](CC(N)=O)NC(=O)[C@H](CC(=O)O)NC(=O)[C@@H]2CCCN2C1=O [compound 331] (H-DCLGFMRKCIPDNDKCCRPNLYCSRTHKWCKYVF-NH2; disulfide 2-17, 9-23, 16-30) | 4.26 µM | 0.56 µM | 0.5 µM
6 | CC[C@H](C)[C@@H]1NC(=O)[C@@H]2CSSC[C@@H]3NC(=O)[C@H](CCSC)NC(=O)[C@H](CC(C)C)NC(=O)[C@H](CC(N)=O)NC(=O)[C@@H]4CCCN4C(=O)[C@H](CCCNC(=N)N)NC(=O)[C@H](CSSC[C@H](NC(=O)[C@@H](N)CC(=O)O)C(=O)N[C@@H](CC(C)C)C(=O)NCC(=O)N[C@@H](Cc4ccccc4)C(=O)N[C@@H](CCSC)C(=O)N[C@@H](CCCNC(=N)N)C(=O)N[C@@H](CCCCN)C(=O)N2)NC(=O)[C@H](CSSC[C@@H](C(=O)N[C@@H](CCCCN)C(=O)N[C@@H](Cc2ccc(O)cc2)C(=O)N[C@H](C(=O)N[C@@H](Cc2ccccc2)C(N)=O)C(C)C)NC(=O)[C@H](Cc2c[nH]c4ccccc24)NC(=O)[C@H](CCCCN)NC(=O)[C@H](Cc2c[nH]cn2)NC(=O)[C@H]([C@@H](C)O)NC(=O)[C@H](CCCNC(=N)N)NC(=O)[C@H](CO)NC3=O)NC(=O)[C@H](CCCCN)NC(=O)[C@H](CC(=O)O)NC(=O)[C@H](CC(N)=O)NC(=O)[C@H](CC(=O)O)NC(=O)[C@@H]2CCCN2C1=O [compound 332] (H-DCLGFMRKCIPDNDKCCRPNLMCSRTHKWCKYVF-NH2; disulfide 2-17, 9-23, 16-30) | 4.61 µM | 0.09 µM | 0.08 µM
7 | CC[C@H](C)[C@@H]1NC(=O)[C@@H]2CSSC[C@@H]3NC(=O)[C@H](Cc4ccc(C(=O)O)cc4)NC(=O)[C@H](CC(C)C)NC(=O)[C@H](CC(N)=O)NC(=O)[C@@H]4CCCN4C(=O)[C@H](CCCNC(=N)N)NC(=O)[C@H](CSSC[C@H](NC(=O)[C@@H](N)CC(=O)O)C(=O)N[C@@H](CC(C)C)C(=O)NCC(=O)N[C@@H](Cc4ccccc4)C(=O)N[C@@H](CCSC)C(=O)N[C@@H](CCCNC(=N)N)C(=O)N[C@@H](CCCCN)C(=O)N2)NC(=O)[C@H](CSSC[C@@H](C(=O)N[C@@H](CCCCN)C(=O)N[C@@H](Cc2ccc(O)cc2)C(=O)N[C@H](C(=O)N[C@@H](Cc2ccccc2)C(N)=O)C(C)C)NC(=O)[C@H](Cc2c[nH]c4ccccc24)NC(=O)[C@H](CCCCN)NC(=O)[C@H](Cc2c[nH]cn2)NC(=O)[C@H]([C@@H](C)O)NC(=O)[C@H](CCCNC(=N)N)NC(=O)[C@H](CO)NC3=O)NC(=O)[C@H](CCCCN)NC(=O)[C@H](CC(=O)O)NC(=O)[C@H](CC(N)=O)NC(=O)[C@H](CC(=O)O)NC(=O)[C@@H]2CCCN2C1=O [compound 333] (H-DCLGFMRKCIPDNDKCCRPNL[Phe(4-COOH)]CSRTHKWCKYVF-NH2; disulfide 2-17, 9-23, 16-30) | 7.5 µM | 5.77 µM | 4.47 µM
8 | CC[C@H](C)[C@@H]1NC(=O)[C@@H]2CSSC[C@@H]3NC(=O)[C@H](Cc4ccccn4)NC(=O)[C@H](CC(C)C)NC(=O)[C@H](CC(N)=O)NC(=O)[C@@H]4CCCN4C(=O)[C@H](CCCNC(=N)N)NC(=O)[C@H](CSSC[C@H](NC(=O)[C@@H](N)CC(=O)O)C(=O)N[C@@H](CC(C)C)C(=O)NCC(=O)N[C@@H](Cc4ccccc4)C(=O)N[C@@H](CCSC)C(=O)N[C@@H](CCCNC(=N)N)C(=O)N[C@@H](CCCCN)C(=O)N2)NC(=O)[C@H](CSSC[C@@H](C(=O)N[C@@H](CCCCN)C(=O)N[C@@H](Cc2ccc(O)cc2)C(=O)N[C@H](C(=O)N[C@@H](Cc2ccccc2)C(N)=O)C(C)C)NC(=O)[C@H](Cc2c[nH]c4ccccc24)NC(=O)[C@H](CCCCN)NC(=O)[C@H](Cc2c[nH]cn2)NC(=O)[C@H]([C@@H](C)O)NC(=O)[C@H](CCCNC(=N)N)NC(=O)[C@H](CO)NC3=O)NC(=O)[C@H](CCCCN)NC(=O)[C@H](CC(=O)O)NC(=O)[C@H](CC(N)=O)NC(=O)[C@H](CC(=O)O)NC(=O)[C@@H]2CCCN2C1=O [compound 334] (H-DCLGFMRKCIPDNDKCCRPNL[2Pal]CSRTHKWCKYVF-NH2; disulfide 2-17, 9-23, 16-30) | 11 µM | 0.33 µM | 0.14 µM
